Results published in ChEMBL document CHEMBL4368904 (J Med Chem, 2019).
Values belong to the compound of their own block, whether it stands above or below them.

Experiments:
[1] = Stability in human liver microsomes; format: ADME, Microsome
[2] = Toxicity in rhesus monkey at 1 to 3 mg/kg dosed in food treat measured up to 4 hrs post dose; format: organism-based, Macaca mulatta; conditions: in vivo, po
[3] = Elimination half life in CD1 mouse at 1 to 10 mg/kg, po; format: ADME, organism-based; conditions: in vivo
Mus musculus [4] = assay: Induction of hypothermia in C57BL/6J mouse assessed as activity counts at 3 mg/kg, ip measured at 60 mins post dose (reference value: 15.5 +/- 5.5); format: functional
Mus musculus [5] = assay: Induction of hypothermia in C57BL/6J mouse assessed as body temperature at 3 mg/kg, ip measured at 60 mins post dose (reference value: 36.3 +/- 0.8 degC); format: functional
Cytochrome P450 3A4 = Cytochrome P450 3A4 (Homo sapiens, UniProt P08684)
Cytochrome P450 2C9 = Cytochrome P450 2C9 (Homo sapiens, UniProt P11712)
[6] = Elimination half life in CD1 mouse at 3 to 30 mg/kg, ip; format: ADME, organism-based; conditions: in vivo
[7] = Toxicity in cynomolgus monkey effect on clinical parameters at 0.5 mg/kg, iv or 1 mg/kg, po measured after 1 day post dose; format: organism-based, Macaca fascicularis; conditions: in vivo, 24 h
[8] = Oral bioavailability in CD1 mouse at 3 mg/kg; format: ADME, organism-based; conditions: in vivo
Cytochrome P450 2D6 = Cytochrome P450 2D6 (Homo sapiens, UniProt P10635)
[9] = Oral bioavailability in cynomolgus monkey at 1 mg/kg; format: ADME, organism-based, Macaca fascicularis; conditions: in vivo
[10] = Stability in simulated intestinal fluid; format: ADME; conditions: simulated gi fluid
Adenosine receptor A1 [11] = target: Adenosine receptor A1 (Rattus norvegicus, UniProt P25099); assay: Agonist activity at rat A1A adenosine receptor expressed in CHO-K1 cell membranes incubated for 60 mins by [35S]GTPgammaS binding assay; format: functional
[12] = Toxicity in Sprague-Dawley rat assessed as increase in blood pressure at 3 mg/kg, ip; format: organism-based; conditions: in vivo
[13] = Stability in simulated gastric fluid after 120 mins; format: ADME; conditions: read-out: Stability
[14] = Protein binding in mouse plasma; format: ADME, cell-free
[15] = Toxicity in Sprague-Dawley rat assessed as reduction in heart rate at 3 mg/kg, ip; format: organism-based; conditions: in vivo
[16] = Protein binding in rat plasma; format: ADME, cell-free
[17] = Oral bioavailability in CD1 mouse at 1 mg/kg; format: ADME, organism-based; conditions: in vivo
Adenosine receptor A1 [18] = target: T1, Adenosine receptor A1 (Mus musculus, UniProt Q60612); assay: Displacement of [3H]N6-R-phenylisopropyladenosine from mouse A1A adenosine receptor expressed in CHO cell membranes after 60 mins by scintillation proximity assay
T1 sequence (Q60612 whole entry): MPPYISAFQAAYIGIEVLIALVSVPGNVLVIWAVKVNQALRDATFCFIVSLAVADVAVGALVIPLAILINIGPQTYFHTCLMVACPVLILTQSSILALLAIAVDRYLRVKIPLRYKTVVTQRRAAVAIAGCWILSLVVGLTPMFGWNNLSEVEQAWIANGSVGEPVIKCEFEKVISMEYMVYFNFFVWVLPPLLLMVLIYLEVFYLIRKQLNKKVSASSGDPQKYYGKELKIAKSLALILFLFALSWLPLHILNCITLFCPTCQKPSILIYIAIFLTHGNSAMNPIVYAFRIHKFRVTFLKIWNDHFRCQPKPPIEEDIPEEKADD

[19] = target: Alpha-2A adrenergic receptor (Homo sapiens, UniProt P08913); assay: Inhibition of alpha2a receptor (unknown origin)
Adenosine receptor A1 [20] = target: T2, Adenosine receptor A1 (Homo sapiens, UniProt P30542); assay: Displacement of [3H]N6-R-phenylisopropyladenosine from human A1A adenosine receptor expressed in CHO cell membranes after 60 mins by scintillation proximity assay
T2 sequence (P30542 whole entry): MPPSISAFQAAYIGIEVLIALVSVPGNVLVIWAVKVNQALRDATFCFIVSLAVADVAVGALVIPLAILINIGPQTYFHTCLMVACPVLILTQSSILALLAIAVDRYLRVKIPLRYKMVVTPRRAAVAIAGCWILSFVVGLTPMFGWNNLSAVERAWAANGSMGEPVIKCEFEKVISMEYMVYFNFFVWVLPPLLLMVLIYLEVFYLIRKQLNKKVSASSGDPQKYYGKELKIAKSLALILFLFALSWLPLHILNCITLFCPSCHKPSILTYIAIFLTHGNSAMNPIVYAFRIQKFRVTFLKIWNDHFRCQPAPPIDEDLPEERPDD

[21] = target: 5-hydroxytryptamine receptor 2B (Homo sapiens, UniProt P41595); assay: Inhibition of 5HT2B (unknown origin)
Translocator protein = Translocator protein (Homo sapiens, UniProt P30536); assay: Inhibition of TSPO (unknown origin)
Adenosine receptor A3 [22] = target: T3, Adenosine receptor A3 (Mus musculus, UniProt Q61618); assay: Displacement of [125I]N6-(4-amino-3-iodobenzyl)adenosine-5-N-methyluronamide from mouse A3A adenosine receptor expressed in CHO cell membranes after 60 mins by scintillation proximity assay
T3 sequence (Q61618 whole entry): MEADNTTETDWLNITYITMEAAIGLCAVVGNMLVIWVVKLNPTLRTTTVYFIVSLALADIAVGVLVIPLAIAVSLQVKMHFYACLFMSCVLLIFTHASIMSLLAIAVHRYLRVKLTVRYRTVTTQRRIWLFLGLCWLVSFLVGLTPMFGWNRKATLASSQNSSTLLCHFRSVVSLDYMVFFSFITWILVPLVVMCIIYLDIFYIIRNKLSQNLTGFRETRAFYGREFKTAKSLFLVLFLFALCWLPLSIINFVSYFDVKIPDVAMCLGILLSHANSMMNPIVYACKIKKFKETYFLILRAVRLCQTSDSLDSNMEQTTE

Adenosine receptor A3 [23] = target: T4, Adenosine receptor A3 (Homo sapiens, UniProt P0DMS8); assay: Displacement of [125I]N6-(4-amino-3-iodobenzyl)adenosine-5-N-methyluronamide from human A3A adenosine receptor expressed in CHO cell membranes after 60 mins by scintillation proximity assay
T4 sequence (P0DMS8 whole entry): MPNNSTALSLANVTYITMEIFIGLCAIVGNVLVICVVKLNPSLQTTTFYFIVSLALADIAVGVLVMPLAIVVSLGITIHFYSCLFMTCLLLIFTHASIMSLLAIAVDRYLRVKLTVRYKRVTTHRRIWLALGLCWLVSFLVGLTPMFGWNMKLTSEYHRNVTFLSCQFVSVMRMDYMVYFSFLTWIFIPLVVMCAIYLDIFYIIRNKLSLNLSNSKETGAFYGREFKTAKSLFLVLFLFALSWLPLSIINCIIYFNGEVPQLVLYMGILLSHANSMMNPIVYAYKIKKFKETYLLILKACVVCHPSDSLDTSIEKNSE

Adenosine receptor A2a = Adenosine receptor A2a (Homo sapiens, UniProt P29274); assay: Displacement of [3H]2-[p-(2-carboxyethyl)phenylethylamino]-5-N-ethylcarboxamidoadenosine from human A2A adenosine receptor expressed in HEK293 cell membranes at 10 uM after 60 mins by scintillation proximity assay relative to adenosine 5-N-ethyluronamide
[24] = target: T5, 5-hydroxytryptamine receptor 2C (Homo sapiens, UniProt P28335); assay: Inhibition of 5HT2C (unknown origin)
T5 sequence (P28335 whole entry): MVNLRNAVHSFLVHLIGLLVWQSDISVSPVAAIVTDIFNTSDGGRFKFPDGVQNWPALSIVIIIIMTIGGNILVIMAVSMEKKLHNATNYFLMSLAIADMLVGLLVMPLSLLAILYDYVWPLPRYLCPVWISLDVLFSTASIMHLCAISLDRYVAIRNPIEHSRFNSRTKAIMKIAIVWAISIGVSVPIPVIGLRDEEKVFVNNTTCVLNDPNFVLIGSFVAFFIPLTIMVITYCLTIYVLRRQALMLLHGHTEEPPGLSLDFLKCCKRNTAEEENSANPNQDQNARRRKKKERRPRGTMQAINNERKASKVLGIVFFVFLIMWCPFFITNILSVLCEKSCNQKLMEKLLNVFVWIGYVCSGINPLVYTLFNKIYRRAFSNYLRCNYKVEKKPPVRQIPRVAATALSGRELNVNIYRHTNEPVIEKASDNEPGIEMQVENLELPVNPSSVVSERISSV

Alpha-2A adrenergic receptor, sequence (P08913 whole entry): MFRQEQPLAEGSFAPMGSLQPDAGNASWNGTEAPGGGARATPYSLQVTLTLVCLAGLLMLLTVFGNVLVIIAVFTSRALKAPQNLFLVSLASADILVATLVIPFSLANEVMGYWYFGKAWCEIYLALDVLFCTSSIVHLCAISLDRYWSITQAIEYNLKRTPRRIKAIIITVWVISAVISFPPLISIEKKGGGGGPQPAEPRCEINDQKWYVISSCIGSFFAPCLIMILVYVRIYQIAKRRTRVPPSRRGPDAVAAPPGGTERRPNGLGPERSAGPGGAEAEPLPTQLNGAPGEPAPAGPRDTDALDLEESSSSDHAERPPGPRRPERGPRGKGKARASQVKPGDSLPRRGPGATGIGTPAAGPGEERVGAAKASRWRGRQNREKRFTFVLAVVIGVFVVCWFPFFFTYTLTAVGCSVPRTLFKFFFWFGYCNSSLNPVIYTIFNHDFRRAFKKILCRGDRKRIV
Translocator protein, sequence (P30536 whole entry): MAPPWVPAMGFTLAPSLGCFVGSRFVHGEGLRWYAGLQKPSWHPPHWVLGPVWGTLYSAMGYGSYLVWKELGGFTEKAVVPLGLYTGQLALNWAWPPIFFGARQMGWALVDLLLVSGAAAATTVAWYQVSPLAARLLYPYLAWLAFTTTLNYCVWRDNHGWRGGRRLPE
Adenosine receptor A2a, sequence (P29274 whole entry): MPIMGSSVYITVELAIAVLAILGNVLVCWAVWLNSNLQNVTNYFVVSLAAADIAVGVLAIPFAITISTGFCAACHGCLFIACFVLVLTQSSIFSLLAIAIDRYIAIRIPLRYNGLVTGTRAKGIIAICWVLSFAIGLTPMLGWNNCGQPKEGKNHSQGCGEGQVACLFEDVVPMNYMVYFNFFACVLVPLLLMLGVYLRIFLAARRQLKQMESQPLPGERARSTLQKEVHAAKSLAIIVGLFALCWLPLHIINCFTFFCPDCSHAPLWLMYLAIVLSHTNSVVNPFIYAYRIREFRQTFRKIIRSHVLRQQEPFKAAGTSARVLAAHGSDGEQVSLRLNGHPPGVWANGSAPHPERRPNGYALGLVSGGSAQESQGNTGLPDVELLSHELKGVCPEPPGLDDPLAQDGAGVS
Adenosine receptor A1 (Rattus norvegicus, UniProt P25099), sequence (P25099 whole entry): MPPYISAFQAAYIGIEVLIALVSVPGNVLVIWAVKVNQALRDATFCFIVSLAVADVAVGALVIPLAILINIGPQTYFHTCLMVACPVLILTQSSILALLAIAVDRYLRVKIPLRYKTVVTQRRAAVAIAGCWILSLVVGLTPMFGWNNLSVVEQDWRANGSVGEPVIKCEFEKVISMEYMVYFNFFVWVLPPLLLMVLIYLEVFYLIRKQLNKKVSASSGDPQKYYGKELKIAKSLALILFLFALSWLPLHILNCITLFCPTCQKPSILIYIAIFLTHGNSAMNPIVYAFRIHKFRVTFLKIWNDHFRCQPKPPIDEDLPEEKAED
Cytochrome P450 2C9, sequence (P11712 whole entry): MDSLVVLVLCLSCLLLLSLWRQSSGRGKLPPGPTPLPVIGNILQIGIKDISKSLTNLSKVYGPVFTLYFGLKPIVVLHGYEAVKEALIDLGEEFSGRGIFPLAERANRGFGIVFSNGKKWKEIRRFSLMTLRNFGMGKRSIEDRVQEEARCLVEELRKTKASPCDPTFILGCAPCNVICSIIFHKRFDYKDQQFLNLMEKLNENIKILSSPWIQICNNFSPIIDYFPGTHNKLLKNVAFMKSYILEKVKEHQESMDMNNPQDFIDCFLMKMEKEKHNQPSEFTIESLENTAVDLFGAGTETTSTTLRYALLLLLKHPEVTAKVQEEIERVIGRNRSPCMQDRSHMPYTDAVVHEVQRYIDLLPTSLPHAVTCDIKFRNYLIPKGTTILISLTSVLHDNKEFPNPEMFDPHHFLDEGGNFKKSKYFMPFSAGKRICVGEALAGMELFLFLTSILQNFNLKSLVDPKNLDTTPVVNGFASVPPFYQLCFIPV
Cytochrome P450 2D6, sequence (P10635 whole entry): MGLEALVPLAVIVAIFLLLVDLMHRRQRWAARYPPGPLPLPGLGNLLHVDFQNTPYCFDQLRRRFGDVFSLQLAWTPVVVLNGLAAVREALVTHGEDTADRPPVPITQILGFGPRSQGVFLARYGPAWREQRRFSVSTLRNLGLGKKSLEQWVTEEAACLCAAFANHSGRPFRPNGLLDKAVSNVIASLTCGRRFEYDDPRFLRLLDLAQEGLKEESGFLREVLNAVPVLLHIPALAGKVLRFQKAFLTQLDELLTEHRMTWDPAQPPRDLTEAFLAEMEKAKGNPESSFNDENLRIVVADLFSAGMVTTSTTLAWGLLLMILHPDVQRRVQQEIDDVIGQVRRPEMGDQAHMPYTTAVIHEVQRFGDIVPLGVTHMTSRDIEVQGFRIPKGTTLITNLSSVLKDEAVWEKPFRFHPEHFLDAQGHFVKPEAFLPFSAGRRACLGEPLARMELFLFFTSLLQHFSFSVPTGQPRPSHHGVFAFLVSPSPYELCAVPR
Cytochrome P450 3A4, sequence (P08684 whole entry): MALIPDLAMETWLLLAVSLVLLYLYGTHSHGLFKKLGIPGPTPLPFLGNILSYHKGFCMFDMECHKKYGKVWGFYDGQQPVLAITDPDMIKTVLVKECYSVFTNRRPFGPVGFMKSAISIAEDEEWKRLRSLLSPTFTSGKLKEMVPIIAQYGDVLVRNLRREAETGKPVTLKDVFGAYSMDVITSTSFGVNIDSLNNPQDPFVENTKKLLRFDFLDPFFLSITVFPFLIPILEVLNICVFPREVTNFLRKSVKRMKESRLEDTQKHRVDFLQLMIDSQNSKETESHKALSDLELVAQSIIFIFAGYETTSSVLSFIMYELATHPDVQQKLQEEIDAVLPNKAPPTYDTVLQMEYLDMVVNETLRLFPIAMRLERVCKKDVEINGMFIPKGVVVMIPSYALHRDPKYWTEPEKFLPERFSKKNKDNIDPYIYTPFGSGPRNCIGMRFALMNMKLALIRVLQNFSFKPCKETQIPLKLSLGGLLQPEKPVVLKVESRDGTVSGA
5-hydroxytryptamine receptor 2B, sequence (P41595 whole entry): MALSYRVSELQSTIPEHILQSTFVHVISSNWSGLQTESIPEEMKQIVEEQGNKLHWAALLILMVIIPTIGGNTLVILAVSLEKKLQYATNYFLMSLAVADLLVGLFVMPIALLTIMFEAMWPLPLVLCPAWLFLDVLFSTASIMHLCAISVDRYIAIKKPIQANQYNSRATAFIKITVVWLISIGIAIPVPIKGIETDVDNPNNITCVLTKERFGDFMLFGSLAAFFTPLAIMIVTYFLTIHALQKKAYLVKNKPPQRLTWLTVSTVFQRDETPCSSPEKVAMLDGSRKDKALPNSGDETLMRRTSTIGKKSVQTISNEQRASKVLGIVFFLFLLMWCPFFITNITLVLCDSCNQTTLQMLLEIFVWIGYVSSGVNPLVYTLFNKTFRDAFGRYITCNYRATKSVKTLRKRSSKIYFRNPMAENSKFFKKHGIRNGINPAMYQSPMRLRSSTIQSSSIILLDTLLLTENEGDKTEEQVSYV

Stability [1]: Stable
beta t1/2 [3]: 5 to 11 h
IC50 (Cytochrome P450 3A4): > 25000 nM
IC50 (Cytochrome P450 2C9): > 25000 nM
beta t1/2 [6]: 2.5 to 4 h
bioavailability [8]: 124%
IC50 (Cytochrome P450 2D6): > 25000 nM
F [9]: 24%
Stability [10]: Stable
EC50 (Adenosine receptor A1 [11]): 6.65 nM
remaining at 2 h [13]: 51%
PPB [14]: 94%
PPB [16]: 90%
bioavailability [17]: 98%
Ki (Adenosine receptor A1 [18]): 5.2 nM
Structure (SMILES): O[C@@H]1[C@H](O)[C@@H]2C[C@@H]2[C@H]1n1cnc2c(NC(C3CC3)C3CC3)nc(Cl)nc21
Activity [2]: Non-Toxic
Activity (Mus musculus [4]): 5.5
T (Mus musculus [5]): 33.4 °C
Activity [7]: Non-Toxic
Activity [12]: Toxic
Activity [15]: Toxic

Ki [19]: 6960 nM
Ki (Adenosine receptor A1 [20]): 961 nM
Ki [21]: 2900 nM
Ki (Translocator protein): 2380 nM
Ki (Adenosine receptor A3 [22]): 385 nM
Ki (Adenosine receptor A3 [23]): 822 nM
inhibition (Adenosine receptor A2a): 46%
Ki [24]: 8320 nM
Structure (SMILES): O[C@@H]1[C@H](O)[C@@H]2C[C@@H]2[C@H]1n1cnc2c(NC(C3CCC3)C3CCC3)nc(Cl)nc21
